“And” between values parts separate entries of the source, which are not always exact repeats. Equal entries are not always repeated.
What follows are compounds tested against T1, full length SGK1 (Homo sapiens, UniProt O00141) (assay: SGK1 inhibition Assay A (Caliper LabChip electrophoretic separation of fluorescent peptide substrate and phosphorylated product)). Conditions: Assay A; 20 μM ATP, 40 min incubation; read-out: SGK1 IC50.
T1 construct: 125 μM full length SGK1 (Life Technologies Part #PR7358A); purchased Life Technologies PR7358A
T1 sequence (O00141 1-431): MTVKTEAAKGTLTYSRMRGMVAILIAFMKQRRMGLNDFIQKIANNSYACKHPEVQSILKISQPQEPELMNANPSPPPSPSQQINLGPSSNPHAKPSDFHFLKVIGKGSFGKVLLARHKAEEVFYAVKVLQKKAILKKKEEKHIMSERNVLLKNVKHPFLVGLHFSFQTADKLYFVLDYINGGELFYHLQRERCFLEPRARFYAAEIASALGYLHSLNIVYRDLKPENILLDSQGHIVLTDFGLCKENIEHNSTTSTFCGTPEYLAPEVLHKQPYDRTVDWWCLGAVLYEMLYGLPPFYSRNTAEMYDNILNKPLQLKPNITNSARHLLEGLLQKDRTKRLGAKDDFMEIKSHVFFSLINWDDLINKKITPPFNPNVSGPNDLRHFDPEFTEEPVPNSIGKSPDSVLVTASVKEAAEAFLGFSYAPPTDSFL
Format: biochemical

Compound	IC50
COC(=O)N1CC=C(c2cc(N3CCC[C@@H](NC(=O)c4sc(Cl)cc4OC4CN(C5CCOCC5)C4)C3)c3c(N)ncnn23)C1 [Example 573, Methyl (R)-3-(4-amino-5-(3-(5-chloro-3-((1-(tetrahydro-2H-pyran-4-yl)azetidin-3-yl)oxy)thiophene-2-carboxamido)piperidin-1-yl)pyrrolo[2,1-f][1,2,4]triazin-7-yl)-2,5-dihydro-1H-pyrrole-1-carboxylate]	73 nM
CC(=O)N1CC=C(c2cc(N3CCC[C@@H](NC(=O)c4sc(Cl)cc4OC4CN(C)C4)C3)c3c(N)ncnn23)C1 [Example 576, (R)-N-(1-(7-(1-acetyl-2,5-dihydro-1H-pyrrol-3-yl)-4-aminopyrrolo[2,1-f][1,2,4]triazin-5-yl)piperidin-3-yl)-5-chloro-3-((1-methylazetidin-3-yl)oxy)thiophene-2-carboxamide]	7 nM
CC(=O)N1CC=C(c2cc(N3CCC[C@@H](NC(=O)c4sc(Cl)cc4OC4CN(C(C)C)C4)C3)c3c(N)ncnn23)C1 [Example 577, (R)-N-(1-(7-(1-acetyl-2,5-dihydro-1H-pyrrol-3-yl)-4-aminopyrrolo[2,1-f][1,2,4]triazin-5-yl)piperidin-3-yl)-5-chloro-3-((1-isopropylazetidin-3-yl)oxy)thiophene-2-carboxamide]	6 nM
CC(=O)N1CC=C(c2cc(N3CCC[C@@H](NC(=O)c4sc(Cl)cc4OC4CN(CCO)C4)C3)c3c(N)ncnn23)C1 [Example 578, (R)-N-(1-(7-(1-acetyl-2,5-dihydro-1H-pyrrol-3-yl)-4-aminopyrrolo[2,1-f][1,2,4]triazin-5-yl)piperidin-3-yl)-5-chloro-3-((1-(2-hydroxyethyl)azetidin-3-yl)oxy)thiophene-2-carboxamide]	17 nM
CC(=O)N1CC=C(c2cc(N3CCC[C@@H](NC(=O)c4sc(Cl)cc4OC4CCN(C)CC4)C3)c3c(N)ncnn23)C1 [Example 579, (R)-N-(1-(7-(1-acetyl-2,5-dihydro-1H-pyrrol-3-yl)-4-aminopyrrolo[2,1-f][1,2,4]triazin-5-yl)piperidin-3-yl)-5-chloro-3-((1-methylpiperidin-4-yl)oxy)thiophene-2-carboxamide]	4 nM
CC(=O)N1CC=C(c2cc(N3CCC[C@@H](NC(=O)c4sc(Cl)cc4OC4CC5(CNC5)C4)C3)c3c(N)ncnn23)C1 [Example 580]	5 nM
CC(=O)N1CC=C(c2cc(N3CCC[C@@H](NC(=O)c4sc(Cl)cc4OC4CC5(C4)CN(C)C5)C3)c3c(N)ncnn23)C1 [Example 581, (R)-N-(1-(7-(1-acetyl-2,5-dihydro-1H-pyrrol-3-yl)-4-aminopyrrolo[2,1-f][1,2,4]triazin-5-yl)piperidin-3-yl)-5-chloro-3-((2-methyl-2-azaspiro[3.3]heptan-6-yl)oxy)thiophene-2-carboxamide]	4 nM
CC(=O)N1CC=C(c2cc(N3CCC[C@@H](NC(=O)c4sc(Cl)cc4OC4CCN(C5COC5)CC4)C3)c3c(N)ncnn23)C1 [Example 582]	10 nM
CN(C)CCOc1cc(Cl)sc1C(=O)N[C@@H]1CCCN(c2cc(-c3cncnc3)n3ncnc(N)c23)C1 [Example 583, (R)-N-(1-(4-amino-7-(pyrimidin-5-yl)pyrrolo[2,1-f][1,2,4]triazin-5-yl)piperidin-3-yl)-5-chloro-3-(2-(dimethylamino)ethoxy)thiophene-2-carboxamide]	16 nM and 26 nM
Nc1ncnn2c(-c3cncnc3)cc(N3CCC[C@@H](NC(=O)c4sc(Cl)cc4OC4CCN(C5COC5)CC4)C3)c12 [Example 584]	26 nM
CN1CCC(Oc2cc(Cl)sc2C(=O)N[C@@H]2CCCN(c3cc(-c4cncnc4)n4ncnc(N)c34)C2)CC1 [Example 585, (R)-N-(1-(4-amino-7-(pyrimidin-5-yl)pyrrolo[2,1-f][1,2,4]triazin-5-yl)piperidin-3-yl)-5-chloro-3-((1-methylpiperidin-4-yl)oxy)thiophene-2-carboxamide]	9 nM
Nc1ncnn2c(-c3ccnc(C(F)F)c3)cc(N3CCC[C@@H](NC(=O)c4sc(Cl)cc4OC4CCNC4)C3)c12 (stereo partly drawn) [Example 586, N-((R)-1-(4-amino-7-(2-(difluoromethyl)pyridin-4-yl)pyrrolo[2,1-f][1,2,4]triazin-5-yl)piperidin-3-yl)-5-chloro-3-(pyrrolidin-3-yloxy)thiophene-2-carboxamide]	4 nM
Nc1ncnn2c(-c3ccnc(C(F)F)c3)cc(N3CCC[C@@H](NC(=O)c4sc(Cl)cc4OC4CCNCC4)C3)c12 [Example 588, (R)-N-(1-(4-amino-7-(2(difluoromethyl)pyridin-4-yl)pyrrolo[2,1-f][1,2,4]triazin-5-yl)piperidin-3-yl)-5-chloro-3-(piperidin-4-yloxy)thiophene-2-carboxamide]	2 nM
CN1CCC(Oc2cc(Cl)sc2C(=O)N[C@@H]2CCCN(c3cc(-c4ccc(C(N)=O)c(F)c4)n4ncnc(N)c34)C2)CC1 [Example 589, (R)-N-(1-(4-amino-7-(4-carbamoyl-3-fluorophenyl)pyrrolo[2,1-f][1,2,4]triazin-5-yl)piperidin-3-yl)-5-chloro-3-((1-methylpiperidin-4-yl)oxy)thiophene-2-carboxamide]	2 nM
NC(=O)c1ccc(-c2cc(N3CCC[C@@H](NC(=O)c4sc(Cl)cc4OC4CC5(CNC5)C4)C3)c3c(N)ncnn23)cc1F [Example 590, (R)-3-((2-azaspiro[3.3]heptan-6-yl)oxy)-N-(1-(4-amino-7-(4-carbamoyl-3-fluorophenyl)pyrrolo[2,1-f][1,2,4]triazin-5-yl)piperidin-3-yl)-5-chlorothiophene-2-carboxamide]	2 nM
N#Cc1ccc(-c2cc(N3CCC[C@@H](NC(=O)c4sc(Cl)cc4OC4CC5(CNC5)C4)C3)c3c(N)ncnn23)cn1 [Example 591]	1 nM
NC(=O)c1ccc(-c2cc(N3CCC[C@@H](NC(=O)c4sc(Cl)cc4OC4CC5(CNC5)C4)C3)c3c(N)ncnn23)cn1 [Example 592, (R)-5-(5-(3-(3-((2-azaspiro[3.3]heptan-6-yl)oxy)-5-chlorothiophene-2-carboxamido)piperidin-1-yl)-4-aminopyrrolo[2,1-f][1,2,4]triazin-7-yl)picolinamide]	0.5 nM
CC(=O)N1CC=C(c2cc(N3CCC[C@@H](NC(=O)c4sc(Cl)cc4OC4CCCN(C)C4)C3)c3c(N)ncnn23)C1 (stereo partly shown) [Example 597]	10 nM
CC(=O)N1CC=C(c2cc(N3CCC[C@@H](NC(=O)c4sc(Cl)cc4OC4CC(N(C)C)C4)C3)c3c(N)ncnn23)C1 (stereo partly drawn) [Example 598, (R)-N-(1-(7-(1-acetyl-2,5-dihydro-1H-pyrrol-3-yl)-4-aminopyrrolo[2,1-f][1,2,4]triazin-5-y1)piperidin-3-y1)-5-chloro-3-(3-(dimethylamino)cyclobutoxy)thiophenc-2-carboxamide]	6 nM
CC(=O)N1CC=C(c2cc(N3CCC[C@@H](NC(=O)c4sc(Cl)cc4OC4CC(N(C)C)C4)C3)c3c(N)ncnn23)C1 (stereo partly drawn) [Example 599, (R)-N-(1-(7-(1-acetyl-2,5-dihydro-1H-pyrrol-3-yl)-4-aminopyrrolo[2,1-f][1,2,4]triazin-5-yl)piperidin-3-y1)-5-chloro-3-(3-(dimethylamino)cyclobutoxy)thiophene-2-carboxamide]	8 nM
CC(=O)N1CC=C(c2cc(N3CCC[C@@H](NC(=O)c4sc(Cl)cc4OC4CCNCC4F)C3)c3c(N)ncnn23)C1 (stereo partly drawn) [Example 601, N-((R)-1-(7-(1-acetyl-2,5-dihydro-1H-pyrrol-3-yl)-4-aminopyrrolo[2,1-f][1,2,4]triazin-5-yl)piperidin-3-y1)-5-chloro-3-((3-fluoropiperidin-4-yl)oxy)thiophene-2-carboxamide]	4 nM
CC(=O)N1CC=C(c2cc(N3CCC[C@@H](NC(=O)c4sc(Cl)cc4OC4CCNCC4F)C3)c3c(N)ncnn23)C1 (stereo partly drawn) [Example 602, N-((R)-1-(7-(1-acetyl-2,5-dihydro-1H-pyrrol-3-yl)-4-aminopyrrolo[2,1-f][1,2,4]triazin-5-y1)piperidin-3-y1)-5-chloro-3-((3-fluoropiperidin-4-yl)oxy)thiophone-2-carboxamide]	3 nM
CC(=O)N1CC=C(c2cc(N3CCC[C@@H](NC(=O)c4sc(Cl)cc4OC4CCNCC4F)C3)c3c(N)ncnn23)C1 (stereo partly drawn) [Example 603, N-((R)-1-(7-(1-acetyl-2,5-dihydro-1H-pyrrol-3-y1)-4-aminopyrrolo[2,1-f][1,2,4]triazin-5-yl)piperidin-3-y1)-5-chloro-3-((3-fluoropiperidin-4-yl)oxy)thiophene~2-carboxamide]	7 nM
CC(=O)N1CC=C(c2cc(N3CCC[C@@H](NC(=O)c4sc(Cl)cc4OC4CCN(C)CC4F)C3)c3c(N)ncnn23)C1 (stereo partly drawn) [Example 604, N-((R)-1-(7-(1-acetyl-2,5-dihydro-1H-pyrrol-3-y1)-4-aminopyrrolo[2,1-f][1,2,4]triazin-5-yl)piperidin-3-y1)-5-chloro-3-((3-fluoro-1-methylpiperidin-4-yl)oxy)thiophene-2-carboxamide]	5 nM
CC(=O)N1CC=C(c2cc(N3CCC[C@@H](NC(=O)c4sc(Cl)cc4OC4CCN(C)CC4F)C3)c3c(N)ncnn23)C1 (stereo partly drawn) [Example 605, N-((R)-1-(7-(1-acetyl-2,5-dihydro-1H-pyrrol-3-yl)-4-aminopyrrolo[2,1-f][1,2,4]triazin-5-yl)piperidin-3-y1)-5-chloro-3-((3-fluoro-1-methylpiperidin-4-yl)oxy)thiophene-2-carboxamide]	3 nM

Reference: US20260250290A1 (BRISTOL-MYERS SQUIBB COMPANY, priority 2023, published 2026)
